Measured values published in patent US20250049926A1, “PHARMACEUTICAL COMPOSITIONS COMPRISING MODIFIED BETACYCLODEXTRINS” (priority 2021, published 2025).

Assay: Solubility measurement of saturated solutions by HPLC at room temperature (0 h and 24 h)
Assay type: physicochemical
Settings: for solubility at 0 h / solubility at 24 h: thermodynamic from solid
Method: The vial contents are prepared starting with 2.5 mg of the compound of formula (I). The primary excipient is added followed by any further excipient and then the buffered water to a total volume of 500 μL. All components are mixed in a vortex mixer for ca. 5 minutes. If everything is dissolved an additional 2.5 mg of the compound of formula (I) is added and vortexed again for ca. 5 minutes. This is repeated until a saturated solution (suspension) is obtained.
The solubility in vial 1 is measured immediately as described below.
To measure solubility 400 μl of the suspension are taken and placed in a centrifugation device above a 0.2 μm filter. Centrifugation is performed at 14,000 rpm for 10 minutes and if necessary repeated for additional 10 minutes. The filter is removed from the vial and 100 μL is taken and diluted with 400 μL high-performance liquid chromatography (HPLC) diluent solution (see below) or diluted with 900 μL HPLC diluent solution in the event 5 mg or more of the compound of formula (I) was used. The pH of the solution is measured. A further 100 μL of the vial solution is taken and diluted with 400 μL of HPLC diluent solution or diluted with 900 μL HPLC diluent solution in the event 5 mg or more of the compound of formula (I) was used. The assay of the solution versus control stock solution is measured by HPLC and the solubility is calculated as described below. The HPLC diluent solution is 0.1% trifluoroacetic acid (TFA) in acetonitrile (ACN) and water (1:1 v/v).
All solubility tests are performed at room temperature.
The HPLC method for assessing solubility is performed as follows:
The solubility of the compound of formula (I) is calculated according to the following formula:
[formula] • Solubility=solubility of compound of formula (I) (mg/mL) • A=peak area of the compound of the sample tested • a=value of constant “a” in Linear regression equation y=ax+b • b=value of constant “b” in Linear regression equation y=ax+b • n=dilution time • Formulations for stability assessment are prepared as follows: […]

[1] = buffered water with excipients, pH 2, aqueous with cosolvent or surfactant or cyclodextrin, CBS 30 mM pH 2.0, NaCl 3 mg/mL, SBE-beta-CD 40 mg/mL, pH exp 2.2

Structure (SMILES): COc1cc(N2CCNCC2)ccc1Nc1ncc2c(n1)-n1ccc(C(=O)Nc3c(C)cccc3C)c1CC2 [compound of formula (I)]
- effect of additional excipient on solubility with SBE-beta-CD (Kollidon 12 PF, Kolliphor P188, soybean lecithin): very small impact on solubility
- effect of additional excipient on solubility with SBE-beta-CD (PEG 400, glycerol, propylene glycol and PEG 4000): do not increase the solubility
- effect of additional excipient on solubility with SBE-beta-CD (addition of Tween 80): slightly improves solubility
- effect of additional excipient on solubility with SBE-beta-CD (addition of carboxymethylcellulose sodium, solution sticky at 24 hours): decreases solubility
- solubility at 0 h (buffered water with excipient (saturated solution), pH 4, aqueous buffer, CBS 30 mM pH 4.0, Ethanol 20 mg/mL, pH exp 4.1): 160 µg/mL
- solubility at 24 h (buffered water with excipient (saturated solution), pH 4, aqueous buffer, CBS 30 mM pH 4.0, Ethanol 20 mg/mL, pH exp 4.2): 110 µg/mL
- solubility at 0 h (buffered water with excipient (saturated solution), pH 4, aqueous buffer, CBS 30 mM pH 4.0, PEG 400 20 mg/mL, pH exp 4.1): 220 µg/mL
- solubility at 24 h (buffered water with excipient (saturated solution), pH 4, aqueous buffer, CBS 30 mM pH 4.0, PEG 400 20 mg/mL, pH exp 4.3): 150 µg/mL
- solubility at 0 h (buffered water with excipient (saturated solution), pH 4, aqueous with cosolvent or surfactant or cyclodextrin, CBS 30 mM pH 4.0, NaCl 3 mg/mL, HP-beta-CD 40 mg/mL, pH exp 4.10): 1670 µg/mL
- solubility at 24 h (buffered water with excipient (saturated solution), pH 4, aqueous with cosolvent or surfactant or cyclodextrin, CBS 30 mM pH 4.0, NaCl 3 mg/mL, HP-beta-CD 40 mg/mL, pH exp 4.28): 980 µg/mL
- solubility at 0 h (buffered water with excipient (saturated solution), pH 4, aqueous with cosolvent or surfactant or cyclodextrin, CBS 30 mM pH 4.0, NaCl 3 mg/mL, SBE-beta-CD 10 mg/mL, pH exp 4.1): 890 µg/mL
- solubility at 24 h (buffered water with excipient (saturated solution), pH 4, aqueous with cosolvent or surfactant or cyclodextrin, CBS 30 mM pH 4.0, NaCl 3 mg/mL, SBE-beta-CD 10 mg/mL, pH exp 4.2): 1110 µg/mL
- solubility at 0 h (buffered water with excipient (saturated solution), pH 4, aqueous with cosolvent or surfactant or cyclodextrin, CBS 30 mM pH 4.0, NaCl 3 mg/mL, SBE-beta-CD 25 mg/mL, pH exp 4.1): 1840 µg/mL
- solubility at 24 h (buffered water with excipient (saturated solution), pH 4, aqueous with cosolvent or surfactant or cyclodextrin, CBS 30 mM pH 4.0, NaCl 3 mg/mL, SBE-beta-CD 25 mg/mL, pH exp 4.2): 2540 µg/mL
- solubility at 0 h (buffered water with excipient (saturated solution), pH 4, aqueous with cosolvent or surfactant or cyclodextrin, CBS 30 mM pH 4.0, NaCl 3 mg/mL, SBE-beta-CD 40 mg/mL, pH exp 4.0): 2480 µg/mL
- solubility at 24 h (buffered water with excipient (saturated solution), pH 4, aqueous with cosolvent or surfactant or cyclodextrin, CBS 30 mM pH 4.0, NaCl 3 mg/mL, SBE-beta-CD 40 mg/mL, pH exp 4.2): 3800 µg/mL
- solubility at 0 h (buffered water with excipient (saturated solution), pH 4, aqueous with cosolvent or surfactant or cyclodextrin, CBS 30 mM pH 4.0, Ethanol 50 mg/mL, pH exp 4.2): 190 µg/mL
- solubility at 24 h (buffered water with excipient (saturated solution), pH 4, aqueous with cosolvent or surfactant or cyclodextrin, CBS 30 mM pH 4.0, Ethanol 50 mg/mL, pH exp 4.3): 90 µg/mL
- solubility at 0 h (buffered water with excipient (saturated solution), pH 4, aqueous with cosolvent or surfactant or cyclodextrin, CBS 30 mM pH 4.0, Ethanol 100 mg/mL, pH exp 4.2): 260 µg/mL
- solubility at 24 h (buffered water with excipient (saturated solution), pH 4, aqueous with cosolvent or surfactant or cyclodextrin, CBS 30 mM pH 4.0, Ethanol 100 mg/mL, pH exp 4.4): 140 µg/mL
- solubility at 0 h (buffered water with excipient (saturated solution), pH 4, aqueous with cosolvent or surfactant or cyclodextrin, CBS 30 mM pH 4.0, Glycerol 50 mg/mL, pH exp 4.1): 180 µg/mL
- solubility at 24 h (buffered water with excipient (saturated solution), pH 4, aqueous with cosolvent or surfactant or cyclodextrin, CBS 30 mM pH 4.0, Glycerol 50 mg/mL, pH exp 4.3): 120 µg/mL
- solubility at 0 h (buffered water with excipient (saturated solution), pH 4, aqueous with cosolvent or surfactant or cyclodextrin, CBS 30 mM pH 4.0, Glycerol 100 mg/mL, pH exp 4.1): 210 µg/mL
- solubility at 24 h (buffered water with excipient (saturated solution), pH 4, aqueous with cosolvent or surfactant or cyclodextrin, CBS 30 mM pH 4.0, Glycerol 100 mg/mL, pH exp 4.3): 130 µg/mL
- solubility at 0 h (buffered water with excipient (saturated solution), pH 4, aqueous with cosolvent or surfactant or cyclodextrin, CBS 30 mM pH 4.0, Glycerol 500 mg/mL, pH exp 4.6): 1060 µg/mL
- solubility at 24 h (buffered water with excipient (saturated solution), pH 4, aqueous with cosolvent or surfactant or cyclodextrin, CBS 30 mM pH 4.0, Glycerol 500 mg/mL, pH exp 4.8): 260 µg/mL
- solubility at 0 h (buffered water with excipient (saturated solution), pH 4, aqueous with cosolvent or surfactant or cyclodextrin, CBS 30 mM pH 4.0, PEG 100 mg/mL, pH exp 4.3): 600 µg/mL
- solubility at 24 h (buffered water with excipient (saturated solution), pH 4, aqueous with cosolvent or surfactant or cyclodextrin, CBS 30 mM pH 4.0, PEG 100 mg/mL, pH exp 4.5): 400 µg/mL
- solubility at 0 h (buffered water with excipient (saturated solution), pH 4, aqueous with cosolvent or surfactant or cyclodextrin, CBS 30 mM pH 4.0, PEG 400 50 mg/mL, pH exp 4.1): 340 µg/mL
- solubility at 24 h (buffered water with excipient (saturated solution), pH 4, aqueous with cosolvent or surfactant or cyclodextrin, CBS 30 mM pH 4.0, PEG 400 50 mg/mL, pH exp 4.4): 230 µg/mL
- solubility at 0 h (buffered water with excipient (saturated solution), pH 4, aqueous with cosolvent or surfactant or cyclodextrin, CBS 30 mM pH 4.0, PEG 400 500 mg/mL, pH exp 6.3): 4100 µg/mL
- solubility at 24 h (buffered water with excipient (saturated solution), pH 4, aqueous with cosolvent or surfactant or cyclodextrin, CBS 30 mM pH 4.0, PEG 400 500 mg/mL, pH exp 6.4): ≥ 4550 µg/mL
- solubility at 0 h (buffered water with excipient (saturated solution), pH 4, aqueous with cosolvent or surfactant or cyclodextrin, CBS 30 mM pH 4.0, PG 50 mg/mL, pH exp 4.1): 200 µg/mL
- solubility at 24 h (buffered water with excipient (saturated solution), pH 4, aqueous with cosolvent or surfactant or cyclodextrin, CBS 30 mM pH 4.0, PG 50 mg/mL, pH exp 4.3): 110 µg/mL
- solubility at 0 h (buffered water with excipient (saturated solution), pH 4, aqueous with cosolvent or surfactant or cyclodextrin, CBS 30 mM pH 4.0, PG 100 mg/mL, pH exp 4.1): 280 µg/mL
- solubility at 24 h (buffered water with excipient (saturated solution), pH 4, aqueous with cosolvent or surfactant or cyclodextrin, CBS 30 mM pH 4.0, PG 100 mg/mL, pH exp 4.4): 150 µg/mL
- solubility at 0 h (buffered water with excipient (saturated solution), pH 4, aqueous with cosolvent or surfactant or cyclodextrin, CBS 30 mM pH 4.0, PG 500 mg/mL, pH exp 5.4): 3740 µg/mL
- solubility at 24 h (buffered water with excipient (saturated solution), pH 4, aqueous with cosolvent or surfactant or cyclodextrin, CBS 30 mM pH 4.0, PG 500 mg/mL, pH exp 5.3): 2200 µg/mL
- solubility at 0 h (buffered water with excipient (saturated solution), pH 5, aqueous with cosolvent or surfactant or cyclodextrin, CBS 30 mM pH 5.0, NaCl 3 mg/mL, SBE-beta-CD 40 mg/mL, pH exp 5.0): 2240 µg/mL
- solubility at 24 h (buffered water with excipient (saturated solution), pH 5, aqueous with cosolvent or surfactant or cyclodextrin, CBS 30 mM pH 5.0, NaCl 3 mg/mL, SBE-beta-CD 40 mg/mL, pH exp 5.3): 3520 µg/mL
- solubility at 0 h (buffered water with excipient (saturated solution), pH 5.5, aqueous with cosolvent or surfactant or cyclodextrin, CBS 30 mM pH 5.5, NaCl 3 mg/mL, SBE-beta-CD 40 mg/mL, pH exp 5.5): 1630 µg/mL
- solubility at 0 h [1]: 6590 µg/mL
- solubility at 24 h [1]: 5470 µg/mL
- solubility at 0 h (buffered water with excipients, pH 4, aqueous with cosolvent or surfactant or cyclodextrin, ABS (acetate) 30 mM pH 4.0, NaCl 3 mg/mL, SBE-beta-CD 40 mg/mL, pH exp 4.0): 2880 µg/mL
- solubility at 24 h (buffered water with excipients, pH 4, aqueous with cosolvent or surfactant or cyclodextrin, ABS (acetate) 30 mM pH 4.0, NaCl 3 mg/mL, SBE-beta-CD 40 mg/mL, pH exp 4.6): 3720 µg/mL
- solubility at 0 h (buffered water with excipients, pH 4, aqueous with cosolvent or surfactant or cyclodextrin, ASBS (aspartate) 30 mM pH 4.0, NaCl 3 mg/mL, SBE-beta-CD 40 mg/mL, pH exp 4.0): 2880 µg/mL
- solubility at 24 h (buffered water with excipients, pH 4, aqueous with cosolvent or surfactant or cyclodextrin, ASBS (aspartate) 30 mM pH 4.0, NaCl 3 mg/mL, SBE-beta-CD 40 mg/mL, pH exp 4.6): 3720 µg/mL
- solubility at 0 h (buffered water with excipients, pH 4, aqueous with cosolvent or surfactant or cyclodextrin, CBS 30 mM pH 4.0, NaCl 3 mg/mL, SBE-beta-CD 40 mg/mL + Glycerol 1 mg/mL, pH exp 4.1): 2400 µg/mL
- solubility at 24 h (buffered water with excipients, pH 4, aqueous with cosolvent or surfactant or cyclodextrin, CBS 30 mM pH 4.0, NaCl 3 mg/mL, SBE-beta-CD 40 mg/mL + Glycerol 1 mg/mL, pH exp 4.3): 3720 µg/mL
- solubility at 0 h (buffered water with excipients, pH 4, aqueous with cosolvent or surfactant or cyclodextrin, CBS 30 mM pH 4.0, NaCl 3 mg/mL, SBE-beta-CD 40 mg/mL + Glycerol 5 mg/mL, pH exp 4.2): 2320 µg/mL
- solubility at 24 h (buffered water with excipients, pH 4, aqueous with cosolvent or surfactant or cyclodextrin, CBS 30 mM pH 4.0, NaCl 3 mg/mL, SBE-beta-CD 40 mg/mL + Glycerol 5 mg/mL, pH exp 4.3): 3710 µg/mL
- solubility at 0 h (buffered water with excipients, pH 4, aqueous with cosolvent or surfactant or cyclodextrin, CBS 30 mM pH 4.0, NaCl 3 mg/mL, SBE-beta-CD 40 mg/mL + Glycerol 50 mg/mL, pH exp 4.1): 2330 µg/mL
- solubility at 24 h (buffered water with excipients, pH 4, aqueous with cosolvent or surfactant or cyclodextrin, CBS 30 mM pH 4.0, NaCl 3 mg/mL, SBE-beta-CD 40 mg/mL + Glycerol 50 mg/mL, pH exp 4.2): 3570 µg/mL
- solubility at 0 h (buffered water with excipients, pH 4, aqueous with cosolvent or surfactant or cyclodextrin, CBS 30 mM pH 4.0, NaCl 3 mg/mL, SBE-beta-CD 40 mg/mL + HPMC 5 mg/mL, pH exp 4.1): 2230 µg/mL
- solubility at 24 h (buffered water with excipients, pH 4, aqueous with cosolvent or surfactant or cyclodextrin, CBS 30 mM pH 4.0, NaCl 3 mg/mL, SBE-beta-CD 40 mg/mL + HPMC 5 mg/mL, pH exp 4.3): 3530 µg/mL
